l = locked nucleic acid (LNA); d = 2'-deoxy (DNA)

This series relates to mCD39 mRNA. As to the kind of experiment: mCD39 mRNA knockdown efficacy screen in A20 cells (single dose, gymnotic delivery, QuantiGene Singleplex). It is filed as cell-based, mouse. The settings on record: 10 μM, three days, normalized to HPRT1. As for the experimental part:
FIG. 14-1 and 14-2 show mCD39 mRNA knockdown efficacy of mCD39 antisense oligonucleotides in the murine cancer cell line A20 (mouse B cell lymphoma). A20 cells were treated with a single dose of 10 μM of the respective antisense oligonucleotide. As negative control, cells were treated with neg1, an antisense oligonucleotide having the sequence CGTTTAGGCTATGTACTT (SEQ ID NO:99). Residual mCD39 mRNA expression relative to untreated cells is depicted. Expression values were normalized to expression of the housekeeping gene HPRT1.
In order to analyze the efficacy of mCD39 antisense oligonucleotides with regard to the knockdown of mCD39 mRNA expression in a cancer cell line, A20 (mouse B cell lymphoma, ATCC) cells were treated with a single dose (concentration: 10 μM without addition of any transfection reagent; this process is called gymnotic delivery) of the respective antisense oligonucleotide as indicated in FIG. 14. As control, cells were treated with neg1, an antisense oligonucleotide having the sequence CGTTTAGGCTATGTACTT (SEQ ID NO:99). mCD39 and HPRT1 mRNA expression was analyzed after three days using the QuantiGene Singleplex assay (Affymetrix) and mCD39 expression values were normalized to HPRT1 expression values.
On to “+A*+T*+C*C*A*A*A*G*C*G*C*C*A*A*+A*+G*+G (antisense ATCCAAAGCGCCAAAGG; sugars from the 5' end l3 d11 l3, all phosphorothioate, methylation of C not given here) [A04026MR]”, for which the “Relative mCD39 mRNA expression (compared to non-treated cells)” value was 0.04.
Take “+C*+A*+C*A*T*T*A*G*C*T*G*C*+A*+C*+G (antisense CACATTAGCTGCACG; sugars from the 5' end l3 d9 l3, all phosphorothioate, methylation of C not given here) [A04007MR]”: the “Relative mCD39 mRNA expression (compared to non-treated cells)” value was found to be 0.07.
In the case of “+C*+A*+C*T*G*T*T*C*G*T*A*G*T*+C*+T*+C (antisense CACTGTTCGTAGTCTC; sugars from the 5' end l3 d10 l3, all phosphorothioate, methylation of C not given here) [A04014MR]” it was 0.20.
As for “+C*+C*+A*C*T*T*G*T*A*G*A*T*G*+T*+A*+C (antisense CCACTTGTAGATGTAC; sugars from the 5' end l3 d10 l3, all phosphorothioate, methylation of C not given here) [A04010MR]”, the figure is 0.25; as for “+C*+C*+C*A*G*C*A*G*A*T*A*G*T*T*+A*+A*+T (antisense CCCAGCAGATAGTTAAT; sugars from the 5' end l3 d11 l3, all phosphorothioate, methylation of C not given here) [A04024MR]”, 0.35.
For “+C*+C*+T*A*G*T*T*G*T*G*T*A*+T*+A*+C (antisense CCTAGTTGTGTATAC; sugars from the 5' end l3 d9 l3, all phosphorothioate, methylation of C not given here) [A04008MR]”, the “Relative mCD39 mRNA expression (compared to non-treated cells)” value came out at 0.58.
For “+C*+C*+T*A*G*T*T*G*T*G*T*A*T*+A*+C*+T (antisense CCTAGTTGTGTATACT; sugars from the 5' end l3 d10 l3, all phosphorothioate, methylation of C not given here) [A04021MR]”, the “Relative mCD39 mRNA expression (compared to non-treated cells)” value was found to be 0.35.
In the case of “+C*+G*+T*T*G*C*T*G*T*C*T*T*T*+G*+A*+T (antisense CGTTGCTGTCTTTGAT; sugars from the 5' end l3 d10 l3, all phosphorothioate, methylation of C not given here) [A04018MR]” it was 0.18.
In the case of “+C*+G*+T*T*G*C*T*G*T*C*T*T*T*G*+A*+T*+C (antisense CGTTGCTGTCTTTGATC; sugars from the 5' end l3 d11 l3, all phosphorothioate, methylation of C not given here) [A04031MR]” it was 0.14.
In the case of “+C*+T*+G*T*T*C*G*T*A*G*T*C*+T*+C*+C (antisense CTGTTCGTAGTCTCC; sugars from the 5' end l3 d9 l3, all phosphorothioate, methylation of C not given here) [A04004MR]” it was 0.17; in that of “+G*+A*+C*C*T*T*T*C*A*C*T*T*G*G*C*A*+T (antisense GACCTTTCACTTGGCAT; sugars from the 5' end l3 d13 l1, all phosphorothioate, methylation of C not given here) [A04023MR]”, 0.03; in that of “+G*+A*+T*C*C*A*A*A*G*C*G*C*+C*+A*+A (antisense GATCCAAAGCGCCAA; sugars from the 5' end l3 d9 l3, all phosphorothioate, methylation of C not given here) [A04002MR]”, 0.06.
For the substance “+G*+C*+C*C*A*G*C*A*G*A*T*A*G*+T*+T*+A (antisense GCCCAGCAGATAGTTA; sugars from the 5' end l3 d10 l3, all phosphorothioate, methylation of C not given here) [A04012MR]”, the “Relative mCD39 mRNA expression (compared to non-treated cells)” value is 0.78.
“+G*+C*+C*C*A*G*C*A*G*A*T*A*G*T*+T*+A*+A (antisense GCCCAGCAGATAGTTAA; sugars from the 5' end l3 d11 l3, all phosphorothioate, methylation of C not given here) [A04025MR]”: the “Relative mCD39 mRNA expression (compared to non-treated cells)” value was found to be 0.35.
As for “+G*+C*+T*A*T*A*C*T*G*C*C*T*C*+T*+T*+T (antisense GCTATACTGCCTCTTT; sugars from the 5' end l3 d10 l3, all phosphorothioate, methylation of C not given here) [A04019MR]”, the figure is 0.05; as for “+G*+C*+T*A*T*A*C*T*G*C*C*T*C*T*+T*+T*+C (antisense GCTATACTGCCTCTTTC; sugars from the 5' end l3 d11 l3, all phosphorothioate, methylation of C not given here) [A04032MR]”, 0.02.
Consider “+G*+G*+T*A*C*T*T*C*T*C*C*T*T*+T*+A*+C (antisense GGTACTTCTCCTTTAC; sugars from the 5' end l3 d10 l3, all phosphorothioate, methylation of C not given here) [A04016MR]”, for which the “Relative mCD39 mRNA expression (compared to non-treated cells)” value is listed as 0.17.
As for “+G*+G*+T*G*G*C*A*C*T*G*T*T*+C*+G*+T (antisense GGTGGCACTGTTCGT; sugars from the 5' end l3 d9 l3, all phosphorothioate, methylation of C not given here) [A04005MR]”, the figure is 0.15.
Regarding “+G*+G*+T*G*G*C*A*C*T*G*T*T*C*G*+T*+A*+G (antisense GGTGGCACTGTTCGTAG; sugars from the 5' end l3 d11 l3, all phosphorothioate, methylation of C not given here) [A04030MR]”, the “Relative mCD39 mRNA expression (compared to non-treated cells)” value was determined as 0.21.
As for “+G*+T*+A*C*A*G*G*T*T*G*G*T*G*+T*+G*+A (antisense GTACAGGTTGGTGTGA; sugars from the 5' end l3 d10 l3, all phosphorothioate, methylation of C not given here) [A04009MR]”, the figure is 0.89; as for “+G*+T*+T*A*T*A*G*C*C*T*T*G*+C*+A*+G (antisense GTTATAGCCTTGCAG; sugars from the 5' end l3 d9 l3, all phosphorothioate, methylation of C not given here) [A04006MR]”, 0.06; as for “+G*+T*+T*C*G*T*A*G*T*C*T*C*+C*+A*+G (antisense GTTCGTAGTCTCCAG; sugars from the 5' end l3 d9 l3, all phosphorothioate, methylation of C not given here) [A04003MR]”, 0.07.
In the case of “+T*+A*+C*A*T*T*T*C*T*T*A*C*T*C*+G*+T*+T (antisense TACATTTCTTACTCGTT; sugars from the 5' end l3 d11 l3, all phosphorothioate, methylation of C not given here) [A04033MR]” it was 0.12.

(Values after patent publication US11959083B2, “Immunosuppression-reverting oligonucleotides inhibiting the expression of CD39” (Secarna Pharmaceuticals GmbH & Co. KG, priority 2016, dated 2024).)
